Source: ChEMBL document CHEMBL5357062, “Emopamil-Binding Protein Inhibitors for Treating Multiple Sclerosis” (ACS Med Chem Lett, 2024)

Molecular target: 3-beta-hydroxysteroid-Delta(8),Delta(7)-isomerase (Homo sapiens, UniProt Q15125)
Assay: Inhibition of EBP in HEK293T cells using zymosterol-d5 as substrate preincubated for 30 mins followed by substrate addition and measured after 4 hrs by LC-MS analysis
Assay type: cell-based

Sequence of 3-beta-hydroxysteroid-Delta(8),Delta(7)-isomerase (Q15125 whole entry): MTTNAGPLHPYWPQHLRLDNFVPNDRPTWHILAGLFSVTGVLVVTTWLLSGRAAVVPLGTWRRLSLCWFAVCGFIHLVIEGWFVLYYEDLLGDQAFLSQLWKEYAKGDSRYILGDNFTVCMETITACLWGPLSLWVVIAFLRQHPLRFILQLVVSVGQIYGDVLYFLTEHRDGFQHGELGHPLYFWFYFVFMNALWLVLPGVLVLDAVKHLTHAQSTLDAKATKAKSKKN

Row | Structure (SMILES) | IC50
1 | O=S(=O)(c1cc(F)cc(F)c1)N1CCOC2(CCN(C3CCOCC3)C2)C1 (stereo unspecified) | < 100 nM
2 | O=S(=O)(c1ccc(C(F)(F)F)nc1C1CC1)N1CC2(CN(C3CCOCC3)C2)C1 | < 100 nM
3 | CC(C)c1cc(S(=O)(=O)N2CC3(CN(C4CCOCC4)C3)C2)n(C)n1 | < 100 nM

The remaining lines, values ahead:

Row | IC50 | Structure (SMILES)
4 | < 100 nM | Cc1nc(C(F)(F)F)ccc1S(=O)(=O)N1CC2(CN(C(C)C3CCCO3)C2)C1 (stereo unspecified)
5 | < 100 nM | Cn1nc(C(F)(F)F)cc1S(=O)(=O)N1CCC2(CCN(C3CCOCC3)C2)CC1
6 | < 100 nM | Cn1nc(C(F)(F)F)cc1S(=O)(=O)N1CC2(CN(CC3CC4(COC4)C3)C2)C1
